“And” between values parts separate entries of the source, which are not always exact repeats. Identical values can stand only once.
What was measured:
[1] = xn = mol fraction of the nth substance listed

C=C(C)C(=O)OC
viscosity
Details	298.15 K	303.15 K	308.15 K	313.15 K
101 kPa	0.5625 mPa·s	0.5142 mPa·s and 0.524 mPa·s	0.4932 mPa·s	0.4684 mPa·s
101.3 kPa	0.584 mPa·s	–	0.492 mPa·s	–

CC1(c2ccccc2)OC1C#N (centres undefined)
101 kPa
Details	viscosity [mPa·s]
293.15 K	11.77
298.15 K	9.155
303.15 K	7.386
313.15 K	5.17
323.15 K	3.522

CCCC[P+](C)(CCCC)CCCC.COS(=O)(=O)[O-]
viscosity
Details	293.15 K	298.15 K	303.15 K	308.15 K	313.15 K	318.15 K	323.15 K
100 kPa	729.1 mPa·s and 729.1 mPa·s	521.3 mPa·s and 521.3 mPa·s	381.4 mPa·s and 381.4 mPa·s	286.1 mPa·s and 286.1 mPa·s	217 mPa·s and 217 mPa·s	169.1 mPa·s and 169.1 mPa·s	133.4 mPa·s and 133.4 mPa·s
101 kPa	729.1 mPa·s	521.3 mPa·s	381.4 mPa·s	286.1 mPa·s	217 mPa·s	169.1 mPa·s	133.4 mPa·s

CCCC[n+]1ccn(C)c1.O=C([O-])C(F)(F)F
101 kPa
Details	viscosity [mPa·s]
298.15 K	52.9
303.15 K	58
313.15 K	37.83
323.15 K	26.11

CCOC(C)OCC
101 kPa
Details	viscosity [mPa·s]
303.1 K	0.404
313.1 K	0.364

C[N+](C)(C)CCC[N+]1(C)CCCCC1.N#C[N-]C#N.N#C[N-]C#N
100 kPa
Details	viscosity
293.15 K	4503 mPa·s and 4503 mPa·s
298.15 K	2819 mPa·s
303.15 K	1837 mPa·s and 1837 mPa·s
308.15 K	1224 mPa·s
313.15 K	856.1 mPa·s and 856.1 mPa·s
318.15 K	618.5 mPa·s
323.15 K	460.1 mPa·s and 460.1 mPa·s

ClCCCCCCCl
101 kPa
Details	viscosity
308.15 K	1.616 mPa·s
313.15 K	1.533 mPa·s and 1.534 mPa·s
318.15 K	1.387 mPa·s

FC1CC(F)(F)C(F)(F)C1(F)F (centres undefined)
101 kPa
Details	viscosity [mPa·s]
298.15 K	1.65
313.15 K	1.28
323.15 K	1.08

ClCCCCCCCl + Cc1ccccc1C
viscosity [mPa·s], [1], 101 kPa
Details	x1 = 0.09207	x1 = 0.1778	x1 = 0.2577	x1 = 0.3658	x1 = 0.469	x1 = 0.5509	x1 = 0.6697	x1 = 0.7481	x1 = 0.8853
308.15 K	0.731	0.797	0.859	0.954	1.049	1.131	1.253	1.336	1.493
313.15 K	0.689	0.75	0.809	0.901	0.994	1.073	1.191	1.272	1.419
318.15 K	0.652	0.708	0.767	0.848	0.932	1.001	1.1	1.169	1.287

CC1(c2ccccc2)OC1C#N (centres undefined) + ClC(Cl)(Cl)Cl
[1], 101 kPa, x1 = 0.024
Details	viscosity [mPa·s]
293.15 K	1.041
298.15 K	0.964
303.15 K	0.902
313.15 K	0.8
323.15 K	0.723

C=C(C)C(=O)OC + ClC(Cl)Cl
[1], 303.15 K, 101 kPa
Details	viscosity [mPa·s]
x1 = 0.0522	0.5364
x1 = 0.1301	0.5505
x1 = 0.3102	0.5767
x1 = 0.4132	0.5808
x1 = 0.5161	0.5747
x1 = 0.7435	0.5589
x1 = 0.8591	0.542

CCCC[n+]1ccn(C)c1.O=C([O-])C(F)(F)F + ClC(Cl)Cl
Details	viscosity [mPa·s]
[1], 298.15 K, 101 kPa, x2 = 0.6467	9.74

C=C(C)C(=O)OC + ClCCCl
[1], 303.15 K, 101 kPa
Details	viscosity [mPa·s]
x1 = 0.1012	0.6868
x1 = 0.1978	0.6544
x1 = 0.3975	0.6068
x1 = 0.4985	0.5867
x1 = 0.6234	0.5632
x1 = 0.8713	0.5284

CC(N)(CO)CO + O
viscosity [mPa·s], [1], 101.3 kPa
Details	303.15 K	313.15 K	323.15 K
x1 = 0.019	1.127	0.9018	0.7417
x1 = 0.041	1.683	1.307	1.045
x1 = 0.068	2.681	1.999	1.567

CC(O)CNCC(C)O (centres undefined) + O
viscosity [mPa·s], [1]
Details	293.15 K	298.15 K	303.15 K	308.15 K	313.15 K	318.15 K	323.15 K
101 kPa, x1 = 0.023	–	–	–	–	–	1.095	–
101 kPa, x1 = 0.03	–	–	–	1.695	–	–	–
101.3 kPa, x1 = 0.0071	1.261	1.097	0.958	0.834	0.738	–	0.597
101.3 kPa, x1 = 0.0148	1.61	1.37	1.211	1.046	0.914	–	0.775
101.3 kPa, x1 = 0.0329	2.803	2.363	2.08	1.803	1.54	–	1.2
